Where a name gives a salt, the structure may show the parent alone.

Data set [1] relates to Rattus norvegicus. As to the kind of experiment: Hypolipidemic activity in CFY Sprague-Dawley rat assessed as serum cholesterol level at 0.25% dietary level administered for 7 days relative to control. The data set is classed as functional.
Data set [2] concerns Rattus norvegicus. The data set can be described thus: Hypolipidemic activity in CFY Sprague-Dawley rat assessed as serum triglyceride level at 0.25% dietary level administered for 7 days relative to control. The data set is classed as functional.
The test system of data set [3] is Rattus norvegicus. As to the kind of experiment: Toxicity in CFY Sprague-Dawley rat assessed as body weight gain at 0.25% dietary level administered for 7 days relative to control. The data set is classed as organism-based. As to conditions: in vivo, po, 168 h.
Data set [4] concerns Rattus norvegicus. The data set can be described thus: Toxicity in CFY Sprague-Dawley rat assessed as relative liver weight at 0.25% dietary level administered for 7 days relative to control. As to conditions: in vivo, po, 168 h. The data set is classed as organism-based.
Data set [5] has as its system Rattus norvegicus. As to the kind of experiment: Hypolipidemic activity in CFY Sprague-Dawley rat assessed as liver lipid per gm of liver at 0.25% dietary level administered for 7 days relative to control. The data set is classed as functional.
For data set [6], the system named is Liver. As to the kind of experiment: Inhibition of cholesterol biosynthesis from [1-14C]acetate in rat liver slices at […] relative to control. The data set is classed as functional.
In data set [7] the test system is Liver. As to the kind of experiment: Inhibition of fatty acid biosynthesis from [1-14C]acetate in rat liver slices at 5 X 10^-4 M relative to control. The data set is classed as functional.

For the molecule `CCOC(=O)c1ccc(OCc2ccccc2[N+](=O)[O-])cc1`, the Activity in data set [1] is -20%; in data set [2] it was -21%; in data set [3], 8%; in data set [4], 12%; in data set [5], 3%. The inhibition at 500 µM in data set [6] worked out at 82%; in data set [7] it was 69%.

Consider `CCCC(C(=O)OCCN(CC)CC)(c1ccccc1)c1ccccc1` [PROADIFEN HYDROCHLORIDE], for which the inhibition at 500 µM came out at 86% in data set [6] and 62% in data set [7].

As to `CCOC(=O)Cc1cccc(OCc2ccccc2OC)c1`, the Activity is on record as -16% in data set [1]; -13% in data set [2]; 17% in data set [3]; 34% in data set [4]; 9% in data set [5].

As for `CCOC(=O)c1ccc(OCc2cc(Cl)ccc2Cl)cc1`, the Activity in data set [1] was -25%; in data set [2], -56%; in data set [3], 4%; in data set [4], 13%; in data set [5], 22%.

In the case of `N#Cc1ccc(OCc2ccc(F)cc2)cc1`, the Activity was -17% in data set [1]; 1% in data set [2]; 6% in data set [3]; 20% in data set [4]; 7% in data set [5].

In the case of `CCc1ccc(OCc2ccccc2)cc1`, the Activity in data set [1] is reported as -17%; in data set [2], -57%; in data set [3] it was -3%; in data set [4] it was 20%; in data set [5] it was -6%.

`COC(=O)Cc1ccc(OCc2ccccc2)c(OC)c1`: the Activity in data set [1] is on record as -30%; in data set [2] it was -45%; in data set [3], -68%; in data set [4], 0%; in data set [5], 8%.

Regarding `CCOC(=O)Cc1ccc(OCc2ccc(F)cc2)cc1`, the Activity is recorded as -29% in data set [1]; -71% in data set [2]; 3% in data set [3]; 19% in data set [4]; 11% in data set [5].

In the case of `CCOC(=O)c1ccc(OCc2cc(C)ccc2C)cc1`, the Activity in data set [1] is -12%; in data set [2], -49%; in data set [3], -21%; in data set [4], -9%. For the same molecule, the inhibition at 500 µM in data set [6] is 93%; in data set [7] it was 55%.

Regarding `COc1cc(C=O)ccc1OCc1ccccc1`, the Activity in data set [1] is reported as -23%; in data set [2] it was -18%; in data set [3], -16%; in data set [4] it was 0%; in data set [5], 1%.

As to `CCOC(=O)c1ccc(OCc2cccc([N+](=O)[O-])c2)cc1`, the Activity in data set [1] was -7%; in data set [2] it was -28%; in data set [3] it was -29%; in data set [4] it was -4%. The results for the inhibition at 500 µM in data set [6] and in data set [7] were 54% and 47%, respectively.

Take `CCOC(=O)c1ccc(OCc2ccc(I)cc2)cc1`: the Activity in data set [1] is on record as -18%; in data set [2], -60%; in data set [3], 7%; in data set [4], 11%; in data set [5], 3%.

Regarding `O=C(O)c1ccc(OCc2ccc(F)cc2)cc1`, the Activity is -28% in data set [1]; -49% in data set [2]; -3% in data set [3]; 2% in data set [4]; 8% in data set [5].

Turning to `CCOC(=O)c1ccc(OCc2cccc(C)c2)cc1`, the Activity in data set [1] is listed as -18%; in data set [2], -54%; in data set [3], -10%; in data set [4], -2%. Also, the results for the inhibition at 500 µM in data set [6] and in data set [7] were 97% and 82%, respectively.

On to `CCOC(=O)c1ccc(OCc2cccc(Cl)c2)cc1`, for which the Activity is listed as -19% in data set [1]; -6% in data set [2]; -1% in data set [3]; 10% in data set [4]; -2% in data set [5].

On to `CCOC(=O)c1ccc(OCc2cccc(F)c2)cc1`, for which the Activity is listed as -19% in data set [1]; -60% in data set [2]; -1% in data set [3]; -4% in data set [4]; 1% in data set [5].

In the case of `CCOCCOC(=O)c1ccc(OCc2ccccc2)cc1`, the Activity in data set [1] is given as -17%; in data set [2], -51%; in data set [3], 10%; in data set [4], 10%; in data set [5], 0%.

For the molecule `CCOC(=O)c1ccc(OCc2ccc(Cl)cc2Cl)cc1`, the Activity in data set [1] was -18%; in data set [2], -42%; in data set [3], -15%; in data set [4], -2%; in data set [5], 8%.

As to `CCOC(=O)c1ccc(COc2ccccc2)cc1`, the Activity is reported as -25% in data set [1]; -38% in data set [2]; 8% in data set [3]; 26% in data set [4]; 3% in data set [5].

On to `CCOC(=O)CCCCCc1ccc(OCc2ccccc2)cc1`, for which the Activity is given as -38% in data set [1]; -83% in data set [2]; -7% in data set [3]; 21% in data set [4]; 32% in data set [5].

Regarding `CC(C)OC(=O)c1ccc(OCc2ccccc2)cc1`, the Activity was -10% in data set [1]; -40% in data set [2]; -4% in data set [3]; 13% in data set [4]; -5% in data set [5].

For the molecule `O=C([O-])c1ccc(OCc2ccccc2)cc1.[Na+]`, the Activity in data set [1] was -15%; in data set [2] it was -38%; in data set [3], -13%; in data set [4], 2%; in data set [5], 12%.

`COC(=O)c1ccc(OCc2ccccc2)cc1`: the Activity in data set [1] is listed as -19%; in data set [2], -51%; in data set [3] it was -14%; in data set [4], 15%; in data set [5], 4%.

Take `COC(=O)CCc1ccc(OCc2ccccc2)cc1`: the Activity is on record as -16% in data set [1]; -45% in data set [2]; -3% in data set [3]; 18% in data set [4]; 3% in data set [5].

In the case of `Cc1ccc(COc2ccc(C#N)cc2)cc1`, the Activity in data set [1] is -19%; in data set [2], -58%; in data set [3], -29%; in data set [4] it was 27%; in data set [5], 14%.

As to `Cc1ccc(OCc2ccccc2)cc1`, the Activity is reported as -19% in data set [1], -19% in data set [2], -7% in data set [3] and 29% in data set [4]. Besides, the inhibition at 500 µM in data set [6] was 67%; in data set [7], 43%.

As for `CCOC(=O)C(C)(C)Oc1ccc(Cl)cc1` [CLOFIBRATE], the Activity in data set [1] was -23%; in data set [2] it was -31%; in data set [3], 0%; in data set [4], 32%; in data set [5] it was 3%.

Turning to `CCOC(=O)c1ccc(COc2ccc(C)cc2)cc1`, the Activity was -20% in data set [1]; -41% in data set [2]; 5% in data set [3]; 4% in data set [4]; 13% in data set [5].

Consider `CCOC(=O)Cc1ccc(OCc2cccc(F)c2)cc1`, for which the Activity in data set [1] is given as -37%; in data set [2], -71%; in data set [3], -17%; in data set [4], 18%; in data set [5], 9%.

As to `CCOC(=O)c1ccc(OCc2cccc(C(F)(F)F)c2)cc1`, the Activity is listed as -11% in data set [1], 8% in data set [2], 12% in data set [3] and 9% in data set [4]. The inhibition at 500 µM in data set [6] amounted to 99%; in data set [7], 92%.

Regarding `CCCCCCCCCc1ccc(OCc2ccccc2)cc1`, the Activity in data set [1] is listed as -12%; in data set [2] it was -67%; in data set [3], -41%; in data set [4] it was -5%. The inhibition at 500 µM in data set [6] stood at 67%; in data set [7], 60%.

Turning to `O=C(OCc1ccccc1)c1ccc(OCc2ccccc2)cc1`, the Activity in data set [1] was -21%; in data set [2], -50%; in data set [3], 6%; in data set [4] it was 6%; in data set [5] it was 7%.

Regarding `CCOC(=O)Cc1ccc(OCc2ccccc2F)cc1`, the Activity in data set [1] is reported as -29%; in data set [2], -64%; in data set [3], -20%; in data set [4] it was -22%; in data set [5], -1%.

With `CCOC(=O)c1ccc(OCc2ccccc2OC)cc1`, the Activity is -13% in data set [1]; -42% in data set [2]; -10% in data set [3]; -2% in data set [4]; 7% in data set [5].

As for `CCOC(=O)c1ccc(OCc2ccc(Cl)cc2)cc1`, the Activity is -12% in data set [1]; -53% in data set [2]; -7% in data set [3]; 6% in data set [4]; 10% in data set [5].

For `N#Cc1ccc(OCc2ccc(Cl)c(Cl)c2)cc1`, the Activity is reported as -19% in data set [1]; -6% in data set [2]; -9% in data set [3]; 18% in data set [4]; 8% in data set [5].

As a reminder, the inhibition is the drop in the measured response relative to a control, in per cent. A low value points to a weak effect.

These data come from ChEMBL document CHEMBL3272121, “Hypolipidemic analogues of ethyl 4-benzyloxybenzoate” (J Med Chem, 1977).
